Measured values published in US11267826B2, “Penicillin-binding protein inhibitors” (priority 2017, dated 2022).

How the values were obtained:
S. aureus ATCC 29213 = experiment: Broth microdilution MIC assay, S. aureus; format: cell-based; conditions: Staphylococcus aureus, ATCC29213; broth microdilution, 16-20 hours at 37° C.; read-out: S. aureus 29213 MIC
Description: (§1) To determine the ability of test compounds to potentiate the inhibition of the growth of bacterial strains, classic cell based broth microdilution MIC assays were employed. MIC assays are performed according to CLSI methods except where otherwise noted (CLSI, 2011 and CLSI, 2009). The reference strain S. aureus ATCC 29213 and the hyper-permeable E. coli 901C were used to determine the ability of the PBP compounds to inhibit bacterial growth. Briefly, cryo-preserved bacterial cultures of clinical strains are streaked for isolation on appropriate agar medium, in this case Mueller Hinton II agar. Following incubation to allow formation of colonies these plates are sealed with parafilm and stored refrigerated for up to two weeks. For preparation of assay inocula and to ensure low variability, at least 5 colonies are picked from the agar plates with an inoculating loop and aseptically transferred to a culture tube containing 3 mL of Mueller-Hinton Broth (supplemented with divalent cations to required levels based on Manufacturers' certification). The broth culture is grown for 3-5 hours at 37° C. with shaking at 200 rpm. Meanwhile, 2-fold serial dilutions of test compounds are conducted in a 96 well plate with a final volume of 75 μL per well at 2-fold the final desired concentration. After the dilution plates are set up the growing cultures are then diluted in a cuvette containing MH II broth and the optical density is measured at 600 nm. Inocula are diluted such that 75 μL of this culture in Mueller-Hinton Broth results in a starting bacterial concentration of 5×10^5 CFU/mL when added to the dilution plates. The plates are incubated 16-20 hours at 37° C. The MIC is read visually as the lowest concentration well with no bacterial growth.

[1] = tested on: hyper-permeable E. coli 901C; experiment: Broth microdilution MIC assay, hyper-permeable E. coli; format: cell-based; conditions: Escherichia coli, read-out: E. coli 901C MIC
Description: as §1

With `Nc1nc(C(CC(=O)O)C(=O)N[C@H]2Cc3cccc(C(=O)O)c3OB2O)cs1` (mixture of isomers) [Example 99, (3R)-3-(2-(2-aminothiazol-4-yl)-3-carboxypropanamido)-2-hydroxy-3,4-dihydro-2H-benzo[e][1,2]oxaborinine-8-carboxylic Acid] the MIC (S. aureus ATCC 29213) was greater than 128 µg/mL and the MIC [1] was 64 to 128 µg/mL.

`Nc1nc(C(=NO)C(=O)NC2Cc3cccc(C(=O)O)c3OB2O)ns1` (stereo in doubt) [Example 20, (S,Z)-3-(2-(5-amino-1,2,4-thiadiazol-3-yl)-2-(hydroxyimino)acetamido)-2-hydroxy-3,4-dihydro-2H-benzo[e][1,2]oxaborinine-8-carboxylic Acid] was tested, and the MIC (S. aureus ATCC 29213) was greater than 128 µg/mL and the MIC [1] was greater than 128 µg/mL.

For `Nc1ncc(C(=NO)C(=O)N[C@H]2Cc3cccc(C(=O)O)c3OB2O)s1` (stereo in doubt) [Example 95, (R,Z)-3-(2-(2-aminothiazol-5-yl)-2-(hydroxyimino)acetamido)-2-hydroxy-3,4-dihydro-2H-benzo[e][1,2]oxaborinine-8-carboxylic Acid], the MIC (S. aureus ATCC 29213) was less than 64 µg/mL and the MIC [1] was greater than 128 µg/mL.

Work on `Nc1ncc(C(=NO)C(=O)N[C@H]2Cc3cccc(C(=O)O)c3OB2O)s1` (stereo in doubt) [Example 96, (R,E)-3-(2-(2-aminothiazol-5-yl)-2-(hydroxyimino)acetamido)-2-hydroxy-3,4-dihydro-2H-benzo[e][1,2]oxaborinine-8-carboxylic Acid] yielded an MIC (S. aureus ATCC 29213) of 64 to 128 µg/mL and an MIC [1] greater than 128 µg/mL.

`CO/N=C(\C(=O)N[C@H]1Cc2cccc(C(=O)O)c2OB1O)c1nsc(N)n1` [Example 2, (R,Z)-3-(2-(5-amino-1,2,4-thiadiazol-3-yl)-2-(methoxyimino)acetamido)-2-hydroxy-3,4-dihydro-2H-benzo[e][1,2]oxaborinine-8-carboxylic Acid] was tested, and the MIC (S. aureus ATCC 29213) was greater than 128 µg/mL and the MIC [1] was less than 64 µg/mL.

Compound `CO/N=C(/C(=O)N[C@H]1Cc2cccc(C(=O)O)c2OB1O)c1cccnc1` [Example 3, (R,E)-2-hydroxy-3-(2-(methoxyimino)-2-(pyridin-3-yl)acetamido)-3,4-dihydro-2H-benzo[e][1,2]oxaborinine-8-carboxylic Acid] has an MIC (S. aureus ATCC 29213) greater than 128 µg/mL and an MIC [1] greater than 128 µg/mL.

With `CO/N=C(\C(=O)N[C@H]1Cc2cccc(C(=O)O)c2OB1O)c1cccnc1` [Example 4, (R,Z)-2-hydroxy-3-(2-(methoxyimino)-2-(pyridin-3-yl)acetamido)-3,4-dihydro-2H-benzo[e][1,2]oxaborinine-8-carboxylic Acid] the MIC (S. aureus ATCC 29213) was 64 to 128 µg/mL and the MIC [1] was greater than 128 µg/mL.

With `CO/N=C(\C(=O)N[C@H]1Cc2cccc(C(=O)O)c2OB1O)c1ccc2c(c1)CNC2` [Example 5, (R,Z)-2-hydroxy-3-(2-(isoindolin-5-yl)-2-(methoxyimino)acetamido)-3,4-dihydro-2H-benzo[e][1,2]oxaborinine-8-carboxylic Acid] the MIC (S. aureus ATCC 29213) was greater than 128 µg/mL and the MIC [1] was greater than 128 µg/mL.

`O=C(N[C@H]1Cc2cccc(C(=O)O)c2OB1O)/C(=N\O)c1ccc2c(c1)CNC2` [Example 8, (R,Z)-2-hydroxy-3-(2-(hydroxyimino)-2-(isoindolin-5-yl)acetamido)-3,4-dihydro-2H-benzo[e][1,2]oxaborinine-8-carboxylic Acid] gave an MIC (S. aureus ATCC 29213) of less than 64 µg/mL and an MIC [1] of less than 64 µg/mL.

Compound `Nc1nc(/C(=N/O)C(=O)N[C@@H]2Cc3cccc(C(=O)O)c3OB2O)cs1` [Example 9, (S,Z)-3-(2-(2-aminothiazol-4-yl)-2-(hydroxyimino)acetamido)-2-hydroxy3,4-dihydro-2H-benzo[e][1,2]oxaborinine-8-carboxylic Acid] has an MIC (S. aureus ATCC 29213) greater than 128 µg/mL and an MIC [1] greater than 128 µg/mL.

`NCCNc1nc(/C(=N/O)C(=O)N[C@H]2Cc3cccc(C(=O)O)c3OB2O)cs1` [Example 10, (R,Z)-3-(2-(2-((2-aminoethyl)amino)thiazol-4-yl)-2-(hydroxyimino)acetamido)-2-hydroxy-3,4-dihydro-2H-benzo[e][1,2]oxaborinine-8-carboxylic Acid] was tested, and the MIC (S. aureus ATCC 29213) was 64 to 128 µg/mL and the MIC [1] was greater than 128 µg/mL.

`N=C(N)Nc1nc(/C(=N/O)C(=O)N[C@H]2Cc3cccc(C(=O)O)c3OB2O)cs1` [Example 11, (R,Z)-3-(2-(2-guanidinothiazol-4-yl)-2-(hydroxyimino)acetamido)-2-hydroxy-3,4-dihydro-2H-benzo[e][1,2]oxaborinine-8-carboxylic Acid] gave an MIC (S. aureus ATCC 29213) of less than 64 µg/mL and an MIC [1] greater than 128 µg/mL.

In the case of `Nc1nc(/C(=N/OCCO)C(=O)N[C@H]2Cc3cccc(C(=O)O)c3OB2O)cs1` [Example 13, (R,Z)-3-(2-(2-aminothiazol-4-yl)-2-((2-hydroxyethoxy)imino)acetamido)-2-hydroxy-3,4-dihydro-2H-benzo[e][1,2]oxaborinine-8-carboxylic Acid], the MIC (S. aureus ATCC 29213) is reported as 64 to 128 µg/mL and the MIC [1] is reported as greater than 128 µg/mL.

With `Nc1cc(/C(=N/O)C(=O)N[C@H]2Cc3cccc(C(=O)O)c3OB2O)ccn1` [Example 14, (R,Z)-3-(2-(2-aminopyridin-4-yl)-2-(hydroxyimino)acetamido)-2-hydroxy-3,4-dihydro-2H-benzo[e][1,2]oxaborinine-8-carboxylic Acid] the MIC (S. aureus ATCC 29213) was less than 64 µg/mL and the MIC [1] was greater than 128 µg/mL.

Compound `Nc1cc(/C(=N\O)C(=O)N[C@H]2Cc3cccc(C(=O)O)c3OB2O)ccn1` [Example 15, (R,E)-3-(2-(2-aminopyridin-4-yl)-2-(hydroxyimino)acetamido)-2-hydroxy-3,4-dihydro-2H-benzo[e][1,2]oxaborinine-8-carboxylic Acid] has an MIC (S. aureus ATCC 29213) of 64 to 128 µg/mL and an MIC [1] greater than 128 µg/mL.

Compound `Nc1cccc(/C(=N/O)C(=O)N[C@H]2Cc3cccc(C(=O)O)c3OB2O)n1` [Example 16, (R,Z)-3-(2-(6-aminopyridin-2-yl)-2-(hydroxyimino)acetamido)-2-hydroxy-3,4-dihydro-2H-benzo[e][1,2]oxaborinine-8-carboxylic Acid] has an MIC (S. aureus ATCC 29213) of less than 64 µg/mL and an MIC [1] of 64 to 128 µg/mL.

For `Nc1nc(/C(=N/OCC(=O)O)C(=O)N[C@H]2Cc3cccc(C(=O)O)c3OB2O)cs1` [Example 18, (R,Z)-3-(2-(2-aminothiazol-4-yl)-2-((carboxymethoxy)imino)acetamido)-2-hydroxy-3,4-dihydro-2H-benzo[e][1,2]oxaborinine-8-carboxylic Acid], the MIC (S. aureus ATCC 29213) was greater than 128 µg/mL and the MIC [1] was less than 64 µg/mL.

`Nc1nc(/C(=N/O)C(=O)N[C@H]2Cc3cccc(C(=O)O)c3OB2O)ns1` [Example 19, (R,Z)-3-(2-(5-amino-1,2,4-thiadiazol-3-yl)-2-(hydroxyimino)acetamido)-2-hydroxy-3,4-dihydro-2H-benzo[e][1,2]oxaborinine-8-carboxylic Acid] gave an MIC (S. aureus ATCC 29213) of 64 to 128 µg/mL and an MIC [1] greater than 128 µg/mL.

In the case of `C[N+]1(Cc2ccc3c(c2C(=O)[O-])OB(O)[C@@H](NC(=O)/C(=N\O)c2csc(N)n2)C3)CCCC1` [Example 26, (R,Z)-3-(2-(2-aminothiazol-4-yl)-2-(hydroxyimino)acetamido)-2-hydroxy-7-((1-methylpyrrolidin-1-ium-1-yl)methyl)-3,4-dihydro-2H-benzo[e][1,2]oxaborinine-8-carboxylate], the MIC (S. aureus ATCC 29213) is reported as less than 64 µg/mL.

In the case of `Nc1nc(/C(=N/O)C(=O)N[C@H]2Cc3ccc(CN4CCC(CO)CC4)c(C(=O)O)c3OB2O)cs1` [Example 29, (R,Z)-3-(2-(2-aminothiazol-4-yl)-2-(hydroxyimino)acetamido)-2-hydroxy-7-((4-(hydroxymethyl)piperidin-1-yl)methyl)-3,4-dihydro-2H-benzo[e][1,2]oxaborinine-8-carboxylic Acid], the MIC (S. aureus ATCC 29213) is reported as greater than 128 µg/mL.

Work on `C[N+]1(Cc2ccc3c(c2C(=O)[O-])OB(O)[C@@H](NC(=O)/C(=N\O)c2csc(N)n2)C3)CCC(CO)CC1` (stereo partly drawn) [Example 30, (R,Z)-3-(2-(2-aminothiazol-4-yl)-2-(hydroxyimino)acetamido)-2-hydroxy-7-((4-(hydroxymethyl)-1-methylpiperidin-1-ium-1-yl)methyl)-3,4-dihydro-2H-benzo[e][1,2]oxaborinine-8-carboxylate] yielded an MIC (S. aureus ATCC 29213) of less than 64 µg/mL.

In the case of `CN(CC(=O)O)Cc1ccc2c(c1C(=O)O)OB(O)[C@@H](NC(=O)/C(=N\O)c1csc(N)n1)C2` [Example 31, (R,Z)-3-(2-(2-aminothiazol-4-yl)-2-(hydroxyimino)acetamido)-7-(((carboxymethyl)(methyl)amino)methyl)-2-hydroxy-3,4-dihydro-2H-benzo[e][1,2]oxaborinine-8-carboxylic Acid], the MIC (S. aureus ATCC 29213) is reported as greater than 128 µg/mL.

Compound `C[N+]1(Cc2cc3c(c(C(=O)[O-])c2)OB(O)[C@@H](NC(=O)/C(=N\O)c2csc(N)n2)C3)CCCC1` [Example 34, (R,Z)-3-(2-(2-aminothiazol-4-yl)-2-(hydroxyimino)acetamido)-2-hydroxy-6-((1-methylpyrrolidin-1-ium-1-yl)methyl)-3,4-dihydro-2H-benzo[e][1,2]oxaborinine-8-carboxylate] has an MIC (S. aureus ATCC 29213) of less than 64 µg/mL.

`COC(=O)CCc1cc2c(c(C(=O)O)c1)OB(O)[C@@H](NC(=O)/C(=N\O)c1csc(N)n1)C2` [Example 36, (R,Z)-3-(2-(2-aminothiazol-4-yl)-2-(hydroxyimino)acetamido)-2-hydroxy-6-(3-methoxy-3-oxopropyl)-3,4-dihydro-2H-benzo[e][1,2]oxaborinine-8-carboxylic Acid] was tested, and the MIC (S. aureus ATCC 29213) was less than 64 µg/mL.

Compound `Nc1nc(/C(=N/O)C(=O)N[C@H]2Cc3cc(C(=O)O)cc(C(=O)O)c3OB2O)cs1` [Example 38, (R,Z)-3-(2-(2-aminothiazol-4-yl)-2-(hydroxyimino)acetamido)-2-hydroxy-3,4-dihydro-2H-benzo[e][1,2]oxaborinine-6,8-dicarboxylic Acid] has an MIC (S. aureus ATCC 29213) greater than 128 µg/mL.
